In patent US20200148646A1, “6-S[…] 7-S[…] ANALOGS AND THE USE THEREOF” (Purdue Pharma, L.P., priority 2013, published 2020):

Key:
μ-opioid receptor [1] = target: T1, μ-opioid receptor (Homo sapiens, UniProt P35372); experiment: μ-opioid receptor radioligand ([3H]-diprenorphine) dose-displacement binding assay, HEK-293 or CHO cells
Description: Radioligand dose-displacement binding assays for μ-opioid receptors used 0.3 nM [^3H]-diprenorphine (Perkin Elmer, Shelton, Conn.), with […] membrane protein/well in a final volume of 500 μl binding buffer (10 mM MgCl2, 1 mM EDTA, 5% DMSO, 50 mM HEPES, pH 7.4). Reactions were carried out in the absence or presence of increasing concentrations of unlabeled naloxone. All reactions were conducted in 96-deep well polypropylene plates for 2 hr at room temperature. Binding reactions were terminated by rapid filtration onto 96-well Unifilter GF/C filter plates (Perkin Elmer, Shelton, Conn.), presoaked in 0.5% polyethylenimine using a 96-well tissue harvester (Perkin Elmer, Shelton, Conn.) followed by performing three filtration washes with 500 μl of ice-cold binding buffer. Filter plates were subsequently dried at 50° C. for 2-3 hours. BetaScint scintillation cocktail (Perkin Elmer, Shelton, Conn.) was added (50 l/well), and plates were counted using a Packard Top-Count for 1 min/well. The data were analyzed using the one-site competition curve fitting functions in GraphPad PRISM™ v. 3.0 or higher (San Diego, Calif.), or an in-house function for one-site competition curve-fitting.
(§1) In TABLE 1, binding affinity of certain Compounds of the Invention to the μ-, and κ-opioid receptors in HEK-293 or CHO cells was determined as described above.

μ-opioid receptor [2] = target: T1, μ-opioid receptor; experiment: μ-opioid receptor [35S]GTPγS functional assay, HEK-293 or CHO cells; assay type: biochemical; conditions: for Emax: HEK-293 or CHO cells, relative to DAMGO
Description: [^35S]GTPγS functional assays were conducted using freshly thawed μ-receptor membranes prepared in-house from a cell line expressing recombinant opioid receptor in a HEK-293, CHO or U-2 OS cell background, or purchased from a commercial source (Perkin Elmer, Shelton, Conn.; or DiscovRx, Fremont, Calif.). Assay reactions were prepared by sequentially adding the following reagents to binding buffer (100 mM NaCl, 10 mM MgCl2, 20 mM HEPES, pH 7.4) on ice (final concentrations indicated): membrane protein (0.026 mg/mL), saponin ([…]), GDP ([…]) and [^35S]GTPγS (0.20 nM; Perkin Elmer, Shelton, Conn.). The prepared membrane solution (190 l/well) was transferred to 96-shallow well polypropylene plates containing 10 μl of 20× concentrated stock solutions of the agonist [D-Ala^2, N-methyl-Phe^4 Gly-ol^5]-enkephalin (DAMGO) prepared in dimethyl sulfoxide (DMSO). Plates were incubated for 30 min at about 25° C. with shaking. Reactions were terminated by rapid filtration onto 96-well Unifilter GF/B filter plates (Perkin Elmer, Shelton, Conn.) using a 96-well tissue harvester (Perkin Elmer, Shelton, Conn.) followed by three filtration washes with 200 μl of ice-cold wash buffer (10 mM NaH2PO4, 10 mM Na2HPO4, pH 7.4). Filter plates were subsequently dried at 50° C. for 2-3 hr. BetaScint scintillation cocktail (Perkin Elmer, Shelton, Conn.) was added (50 μl/well) and plates were counted using a Packard Top-Count for 1 min/well. Data were analyzed using the sigmoidal dose-response curve fitting functions in GraphPad PRISM v. 3.0, or an in-house function for non-linear, sigmoidal dose-response curve-fitting.
μ GTP EC50 is the concentration of a compound providing 50% of the maximal response for the compound at a μ-opioid receptor.
μ GTP Emax (%) is the maximal effect elicited by a compound relative to the effect elicited by DAMGO, a standard agonist. Generally, the μ GTP Emax (%) value measures the efficacy of a compound to treat or prevent pain or other Conditions.
In TABLE 2, activity response of certain Compounds of the Invention at the μ- and κ-opioid receptors using HEK-293 or CHO cells was determined as described above for functional assays.

μ-opioid receptor [3] = target: T1, μ-opioid receptor; experiment: μ-opioid receptor [35S]GTPγS functional assay, U-2 OS cells; assay type: biochemical; design: host or cells: U-2 OS cells; conditions: for Emax: U2-OS cells, relative to DAMGO
Procedure, shortened: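 U-2 OS membranes expressing recombinant human μ-receptor (0.026 mg/mL) were incubated with compound, […], saponin and [35S]GTPγS 0.20 nM in HEPES/NaCl/MgCl2 buffer pH 7.4 for 30 min at about 25° C. Filter-bound radioactivity gave sigmoidal fits for EC50; Emax is relative to DAMGO.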

human κ opioid receptor [4] = target: T2, human κ opioid receptor (Homo sapiens, UniProt P41145); experiment: κ-opioid receptor radioligand ([3H]-U69,593) dose-displacement binding assay, HEK-293 or CHO cells; design: expressed in transfected cells; host or cells: HEK-293 cells (in-house prep)
T2 sequence (P41145 whole entry): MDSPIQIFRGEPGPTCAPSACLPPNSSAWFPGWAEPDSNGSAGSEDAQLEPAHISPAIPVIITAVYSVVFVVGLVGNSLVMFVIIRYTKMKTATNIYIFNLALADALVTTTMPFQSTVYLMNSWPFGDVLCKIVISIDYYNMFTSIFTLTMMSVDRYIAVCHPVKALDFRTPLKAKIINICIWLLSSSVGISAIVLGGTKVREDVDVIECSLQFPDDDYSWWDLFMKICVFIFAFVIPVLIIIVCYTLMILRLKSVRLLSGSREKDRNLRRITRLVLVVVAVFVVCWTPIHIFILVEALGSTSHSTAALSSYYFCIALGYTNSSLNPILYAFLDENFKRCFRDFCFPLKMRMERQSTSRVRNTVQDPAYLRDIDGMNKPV
Description: Membranes from recombinant HEK-293 cells expressing the human K opioid receptor (cloned in house) were prepared by lysing cells in ice cold hypotonic buffer (2.5 mM MgCl2, 50 mM HEPES, pH 7.4) (10 mL/10 cm dish) followed by homogenization with a tissue grinder/Teflon pestle. Membranes were collected by centrifugation at 30,000×g for 15 min at 4° C. and pellets were resuspended in hypotonic buffer to a final concentration of 1-3 mg/mL. Protein concentrations were determined using the BioRad protein assay reagent with bovine serum albumen as standard. Aliquots of κ receptor membranes were stored at −80° C.
Radioligand dose displacement assays used 0.4 nM [^3H]-U69,593 (GE Healthcare, Piscataway, N.J.; 40 Ci/mmole) with 15 μg membrane protein (recombinant K opioid receptor expressed in HEK 293 cells; in-house prep) in a final volume of 200 μl binding buffer (5% DMSO, 50 mM Trizma base, pH 7.4). Non-specific binding was determined in the presence of 10 μM unlabeled naloxone or U69,593. All reactions were performed in 96-well polypropylene plates for 1 hr at a temperature of about 25° C. Binding reactions were terminated by rapid filtration onto 96-well Unifilter GF/C filter plates (Perkin Elmer, Shelton, Conn.) presoaked in 0.5% polyethylenimine (Sigma). Harvesting was performed using a 96-well tissue harvester (Perkin Elmer, Shelton, Conn.) followed by five filtration washes with 200 μl ice-cold binding buffer. Filter plates were subsequently dried at 50° C. for 1-2 hours. Fifty μl/well scintillation cocktail (Perkin Elmer, Shelton, Conn.) was added and plates were counted in a Packard Top-Count for 1 min/well.
as §1

human κ opioid receptor [5] = target: T2, human κ opioid receptor; experiment: κ-opioid receptor [35S]GTPγS functional assay, U-2 OS cells; assay type: biochemical; design: expressed in transfected cells; host or cells: U-2 OS cells (in-house membranes); conditions: for Emax: U2-OS cells, relative to U69,593
Procedure, shortened: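 Membranes from U-2 OS cells expressing human κ receptor (0.026 μg/μl protein) were incubated with agonist, 10 μg/mL saponin, 3 μM GDP and 0.20 nM [35S]GTPγS in pH 7.4 HEPES buffer for 30 min at about 25 °C. Bound radioactivity was measured after filtration. EC50 was taken at half-maximal response; Emax is relative to U69,593.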

T1 sequence (P35372 whole entry, species assumed): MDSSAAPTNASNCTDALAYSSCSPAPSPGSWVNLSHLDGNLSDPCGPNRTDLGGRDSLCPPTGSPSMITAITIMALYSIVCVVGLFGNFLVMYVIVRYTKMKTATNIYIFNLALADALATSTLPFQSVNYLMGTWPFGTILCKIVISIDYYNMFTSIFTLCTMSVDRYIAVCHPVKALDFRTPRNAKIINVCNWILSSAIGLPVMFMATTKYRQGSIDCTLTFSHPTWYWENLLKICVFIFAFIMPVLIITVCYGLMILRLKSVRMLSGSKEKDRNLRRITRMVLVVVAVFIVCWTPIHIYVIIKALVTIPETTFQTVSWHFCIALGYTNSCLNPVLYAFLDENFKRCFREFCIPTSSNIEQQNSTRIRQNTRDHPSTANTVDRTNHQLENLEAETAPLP

SMILES: N=C(N)NCCN[C@@H]1CC[C@@]2(O)[C@H]3Cc4ccc(O)cc4[C@@]2(CCN3CC2CC2)C1 [Compound 12, 1-(2-(((4bR,6R,8aS,9R)-11-(cyclopropylmethyl)-3,8a-dihydroxy-6,7,8,8a,9,10-hexahydro-5H-9,4b-(epiminoethano)phenanthren-6-yl)amino)ethyl)guanidine]
- Ki (μ-opioid receptor [1]): 53.2 ± 8.9 nM
- EC50 (μ-opioid receptor [2]): > 20000 nM
- Emax (μ-opioid receptor [2]): 5.33 ± 0.88%
- EC50 (μ-opioid receptor [3]): 32.7 ± 2.82 nM
- Emax (μ-opioid receptor [3]): 64.7 ± 5.17%
- Ki (human κ opioid receptor [4]): 0.29 ± 0.13 nM
- EC50 (human κ opioid receptor [5]): 5.06 ± 0.29 nM
- Emax (human κ opioid receptor [5]): 105 ± 1.76%

SMILES: N=C(N)NCCCCN[C@@H]1CC[C@@]2(O)[C@H]3Cc4ccc(O)cc4[C@@]2(CCN3CC2CC2)C1 [Compound 16, 1-(4-(((4bR,6R,8aS,9R)-11-(cyclopropylmethyl)-3,8a-dihydroxy-6,7,8,8a,9,10-hexahydro-5H-9,4b-(epiminoethano)phenanthren-6-yl)amino)butyl)guanidine]
- Ki (μ-opioid receptor [1]): 70.5 ± 13.8 nM
- EC50 (μ-opioid receptor [2]): 811 ± 442 nM
- Emax (μ-opioid receptor [2]): 9 ± 0.58%
- EC50 (μ-opioid receptor [3]): 53.7 ± 11.5 nM
- Emax (μ-opioid receptor [3]): 78 ± 3.61%
- Ki (human κ opioid receptor [4]): 0.48 ± 0.055 nM
- EC50 (human κ opioid receptor [5]): 15 ± 1.15 nM
- Emax (human κ opioid receptor [5]): 105 ± 2.89%

SMILES: NCCCCN[C@@H]1CC[C@@]2(O)[C@H]3Cc4ccc(O)cc4[C@@]2(CCN3CC2CC2)C1 [Compound 14, (4bR,6R,8aS,9R)-6-((4-aminobutyl)amino)-11-(cyclopropylmethyl)-5,6,7,8,9,10-hexahydro-8aH-9,4b-(epiminoethano)phenanthrene-3,8a-diol]
- Ki (μ-opioid receptor [1]): 124 ± 43.5 nM
- EC50 (μ-opioid receptor [2]): > 20000 nM
- Emax (μ-opioid receptor [2]): 8.67 ± 2.96%
- EC50 (μ-opioid receptor [3]): 85.6 ± 3.31 nM
- Emax (μ-opioid receptor [3]): 74.3 ± 2.19%
- Ki (human κ opioid receptor [4]): 0.56 ± 0.052 nM
- EC50 (human κ opioid receptor [5]): 5.47 ± 0.3 nM
- Emax (human κ opioid receptor [5]): 112 ± 5.13%

SMILES: N=C(N)NCCC(=O)N[C@@H]1CC[C@@]2(O)[C@H]3Cc4ccc(O)cc4[C@@]2(CCN3CC2CC2)C1 [Compound 21, N-((4bR,6R,8aS,9R)-11-(cyclopropylmethyl)-3,8a-dihydroxy-6,7,8,8a,9,10-hexahydro-5H-9,4b-(epiminoethano)phenanthren-6-yl)-3-guanidinopropanamide]
- Ki (μ-opioid receptor [1]): 1010 ± 221 nM
- Ki (human κ opioid receptor [4]): 4.61 ± 1.05 nM
- EC50 (human κ opioid receptor [5]): 120 ± 2.94 nM
- Emax (human κ opioid receptor [5]): 105.3 ± 0.88%

SMILES: NCCN[C@@H]1CC[C@@]2(O)[C@H]3Cc4ccc(O)cc4[C@@]2(CCN3CC2CC2)C1 [Compound 11, (4bR,6R,8aS,9R)-6-((2-aminoethyl)amino)-11-(cyclopropylmethyl)-5,6,7,8,9,10-hexahydro-8aH-9,4b-(epiminoethano)phenanthrene-3,8a-diol]
- Ki (μ-opioid receptor [1]): 71 ± 28.1 nM
- EC50 (μ-opioid receptor [2]): > 20000 nM
- Emax (μ-opioid receptor [2]): 6.33 ± 1.67%
- EC50 (μ-opioid receptor [3]): 37.9 ± 12 nM
- Emax (μ-opioid receptor [3]): 70 ± 8.08%
- Ki (human κ opioid receptor [4]): 0.29 ± 0.049 nM
- EC50 (human κ opioid receptor [5]): 2.75 ± 0.48 nM
- Emax (human κ opioid receptor [5]): 119 ± 0.58%
